Measurements reported in patent US20250235403A1, “COMPOSITIONS AND METHODS OF THE DELIVERY OF ACTIVE AGENTS INCLUDING NUCLEIC ACIDS” (Ohio State Innovation Foundation, priority 2021, published 2025).

What was measured:
[1] = Saturated solubility study; assay type: physicochemical; settings: in squalene-based NE compared with PBS solvent
Experimental: In the saturated solubility study, R848 or IVM were dissolved in PBS or formulated in NE at 2 mg/ml and incubated at room temperature for 24 hours. Insoluble solid drugs were pelleted down by centrifugation. Supernatants were collected for concentration analysis. R848 concentrations were quantified by UV-Vis spectrometry at 320 nm using a NanoDrop 2000 spectrophotometer. IVM concentrations were quantified by high-performance liquid chromatography (HPLC) using an isocratic mobile phase composed of water/methanol/acetonitrile (8:36:56, v/v/v), an C18 column (Kromasil 150-C-18, 4.6×150 mm), and PDA detection at 230 nm.

MC38 cells = assay: In vitro gene regulation by R848 NE, IVM NE, R848-IVM NE; assay type: cell-based, murine; settings: 8 μM, 24 hours
Experimental: MC38 cells were seeded at 3×10^5 cells/well in 6-well plates 24 hours before treatments. […] R848 and IVM were both treated at 8 μM, either as free drug solution or in squalene NE. Total RNA was extracted using TRI reagent (Zymo Research) per manufacturer protocol. cDNA was prepared by high-capacity cDNA reverse transcription kit (Invitrogen, Waltham, MA, USA), and real-time qPCR (RT-qPCR) was done using SsoAdvanced™ Universal SYBRR Green Supermix (Bio-Rad Laboratories, Hercules, CA) on a QuantStudio 7 Flex Real-time PCR System. RT-qPCR primers for murine Calreticulin, Hmgb1, Lc3b, and Actb were purchased from Sigma-Aldrich. Actb was selected as the housekeeping gene control. The relative amount of RNA level was calculated and compared according to the 2−ΔΔCt method.

[2] = Evaluation of squalene as a fusogenic oil (OD500/OD600 of anionic nanoemulsions); assay type: physicochemical; settings: oil/DOPC/CHEMS nanoemulsions; versus medium-chain and long-chain triglyceride
Experimental: To compare the fusogenicities of different oils, simple anionic nanoemulsions were prepared. The compositions evaluated were: oil/DOPC/CHEMS (30:40:40 mole/mole). Oil was selected from squalene, medium-chain triglyceride (MCT) from Abitec (Captex 300), long-chain triglyceride (LCT, soybean oil from Sigma-Aldrich). DOPC: dioleoylphosphatidylcholine, CHEMS: cholesterol hemisuccinate. The various formulations were prepared at pH 8.0 in PBS and then diluted into various buffers with different pH values and incubated for 5 min at room temperature prior to OD measurement. OD500 and OD600 were measured to indicate particle size, with larger particle size indicating increased fusogenicity.

Row | SMILES | increase of solubility [1] | Calreticulin mRNA level (MC38 cells) | fusogenicity [2]
1 | CC[C@H](C)[C@H]1O[C@]2(CC[C@@H]1C)C[C@@H]1C[C@@H](C/C=C(\C)[C@@H](O[C@H]3C[C@H](OC)[C@@H](O[C@H]4C[C@H](OC)[C@@H](O)[C@H](C)O4)[C@H](C)O3)[C@@H](C)/C=C/C=C3\CO[C@@H]4[C@H](O)C(C)=C[C@@H](C(=O)O1)[C@]34O)O2 [IVM, Ivermectin] | 100 fold | did not show significant Calreticulin regulation | –
2 | CCOCc1nc2c(N)nc3ccccc3c2n1CC(C)(C)O [R848, Resiquimod] | 2 fold | – | –
3 | CC(C)=CCC/C(C)=C/CC/C(C)=C/CC/C=C(\C)CC/C=C(\C)CCC=C(C)C [squalene] | – | – | improved fusogenicity
